Earlier results on one compound are cited in patent US10688072B2, “Misoprostol dispersible tablet” (Azanta Danmark A/S, priority 2014, dated 2020).

The structures appear in SMILES notation. Where two headings read alike, the source gives them in different places.

For this data set the following is noted: 400 μg.

For `CCCCC(C)(O)C/C=C/[C@H]1[C@H](O)CC(=O)[C@@H]1CCCCCCC(=O)OC` (mixture of isomers) [misoprostol], the “Peak in plasma concentration” value reads like this: (oral administration compared with vaginal) “larger peak than vaginal administration”; (sublingual administration compared with oral and vaginal) “larger peak in plasma concentration of misoprostol than oral and vaginal”. Further, the “Inter-subject variability in % at peak concentration” value was “smaller than for vaginal application” (oral route compared with vaginal); “smaller following the sublingual route of administration than for oral and vaginal application” (sublingual route compared with oral and vaginal).
